The source of these data is US4428957A, “6-Isothiocyano-5-methoxy-2-tert.-butylbenzthiazole and a method of controlling ruminant liver flukes therewith” (Ciba-Geigy Corporation, priority 1978, dated 1984).

Structures are written as SMILES. Read-outs that look alike come from different tables or passages of the source.

As usually defined, the MTD is the highest dose tested that stayed within the study's limit of toxicity.

One series deals with Fasciola hepatica. Briefly: Test on sheep infested with Fasciola hepatica. In kind it is in vivo, Fasciola hepatica (host: sheep). Particulars: for minimal effective dose: Fasciola hepatica. The source says:
The active substance is introduced in the form of a suspension, by means of a stomach probe or by injection, into the rumen of sheep which have been artificially infested with Fasciola hepatica. Three animals are used per test and per dose, each animal being treated with just one single dose. An initial evaluation is made by comparing the numbers of worm eggs excreted in the droppings of the sheep before and after the treatment. The sheep are killed and dissected three to four weeks after the treatment. The second evaluation is on the basis of a count of the liver flukes which have remained behind in the hepatic ducts after the treatment. Simultaneously and similarly infested but untreated sheep are used as a control or comparison. The difference in the numbers of liver flukes in the two groups is a measure of the degree of effectiveness of the active substance tested.
(§1) The active substances are introduced in the form of a suspension, by means of a stomach probe or by injection, into the rumen of the experimental animals. Three to five sheep are used per test and per dose, each animal being treated with just one single dose. The sheep are kept under observation during 14 days after the treatment, and they are weighed at regular intervals. Any clinical symptoms and cases of death occurring are recorded during this period. Similar sheep (with regard to breed, age and weight) which have not been treated with the respective active substance are kept as control animals together with the treated experimental animals. The same parameters are recorded in the case of the control sheep as in the case of the treated sheep. The minimum effective dose (MED) of 25 mg/kg (see Table) in the case of the compound of formula I is effective in sheep not only against Fasciola hepatica but also against nematodes such as Haemonchus concortus, Trichostrongylus colubriformis and Ostertagia circumcincta, and against cestodes such as Moniezia benedeni.

Series [1] is described as follows: Compatibility in the case of the sheep. Particulars: in vivo; for MTD at 336 h: single dose into the rumen, 14 days observation, read-out: MTD (maximum tolerated dose). The procedure: as §1
The test system of the next series is Nipprostrongylus species. Briefly: gastro-intestinal helminths: tests with various Nipprostrongylus species. In kind it is in vivo. Particulars: compound and its non-toxic salts.
The next series concerns Haemonchus contortus. In words: Test on sheep infected with nematodes: Haemonchus contortus. In kind it is in vivo, Haemonchus contortus (host: sheep). Particulars: read-out: minimum effective dose (MED), effective also against Haemonchus concortus. The source says:
(§2) The active substance is introduced in the form of a suspension by means of a stomach probe, or by injection, into the rumen of sheep which have been artificially infested with nematodes such as Haemonchus controtus and Trichostrongylus colubriformis. Three animals are used per test and per dose, each sheep being treated with just one single dose. An initial evaluation is made by comparing the numbers of worm eggs excreted in the dropping of the sheep before and after the treatment. Seven to ten days after the treatment, the sheep are killed and dissected. A second evaluation is then made by carrying out a count of the worm which have remained behind in the intestine after the treatment. Sheep which have been simultaneously and similarly infested but not treated with the active substance are used as a control or comparison.

Another series has as its system Schistosoma japonicum. In words: schistosomiasis: Schistosoma japonicum in dogs. In kind it is in vivo, Schistosoma japonicum (host: dogs).
A further series relates to Ostertagia circumcincta. In words: Test on sheep infected with nematodes: Ostertagia circumcincta. The settings on record: Teladorsagia circumcincta, read-out: minimum effective dose (MED), effective also against Ostertagia circumcincta. In kind it is in vivo, Ostertagia circumcincta (host: sheep).
Excerpt: as §2

The subject of a further series is Brugia pahangi. Briefly: filariasis: Brugia pahangi in multimammate rats. It is filed as in vivo, Brugia pahangi (host: multimammate rats).
A further series deals with Litomosoides carinii. In words: filariasis: Litomosoides carinii in Mongolian jirds and multimammate rats. In kind it is in vivo.
Another series has as its system Brugia malayi. Briefly: filariasis: Brugia malayi in multimammate rats. It is filed as in vivo, Brugia malayi (host: multimammate rats).
Series [2] deals with parasitic helminths, especially Nematodes and Trematodes. Briefly: anthelmintic activity against parasitic helminths, various test models. In kind it is in vivo.
The subject of series [3] is Trichostrongylus colubriformis. Briefly: Test on sheep infected with nematodes: Trichostrongylus colubriformis. In kind it is in vivo, Trichostrongylus colubriformis (host: sheep). The settings on record: read-out: minimum effective dose (MED), effective also against Trichostrongylus colubriformis.
Excerpt: as §2

Another series relates to Dipetalonea viteae. Briefly: filariasis: Dipetalonea viteae in Mongolian jirds and multimammate rats. In kind it is in vivo.
The subject of the next series is Schistosoma mansoni. In words: schistosomiasis: Schistosoma mansoni in mice and Syrian hamsters. In kind it is in vivo, Schistosoma mansoni (host: mice and Syrian hamsters).
In a further series the test system is Moniezia benedeni. In words: Test on sheep infested with cestodes: Moniezia benedeni. It is filed as in vivo, Moniezia benedeni (host: sheep). Particulars: read-out: minimum effective dose (MED), effective also against Moniezia benedeni. The source says:
The active substance is introduced in the form of a suspension, by means of a stomach probe or by injection, into the rumen of sheep which are infested with cestodes such as Moniezia benedeni. Three animals are used per test and per dose, each sheep being treated with just one single dose. The sheep are killed and dissected seven to ten days after the treatment. The evaluation is made on the basis of a count of the worms which have remained behind in the intestine after the treatment. Sheep which have been simultaneously and similarly infested but not treated with the active substance are used as a control or comparison.

[4] abbreviates: read-out: MED (minimum effective dose).

For `CC(C)(C)c1nc2ccc(N=C=S)cc2s1` [No. 2, reference compound], the minimal effective dose with Fasciola hepatica (setting [4]) is 100 mg/kg. Further, the MTD at 336 h in series [1] stood at 200 mg/kg.
As to `COc1cc2nc(C(C)C)sc2cc1N=C=S` [No. 3, reference compound], the minimal effective dose in the series with Fasciola hepatica (setting [4]) is over 100 mg/kg. Moreover, the MTD at 336 h in [1] stood at 200 mg/kg.
The matching figures for `CC(C)c1nc2ccc(N=C=S)cc2s1` [No. 4, reference compound]: over 200 mg/kg and 200 mg/kg.
Take `COc1cc2nc(C(C)(C)C)sc2cc1N=C=S` [compound of the formula I, 6-isothiocyano-5-methoxy-2-tert.-butyl-benzothiazole]: the “properties against gastro-intestinal helminths” value in the series with Nipprostrongylus species was “surprising properties against gastro-intestinal helminths”. Moreover, the minimal effective dose in the series with Haemonchus contortus amounted to 25 mg/kg; with Fasciola hepatica (setting [4]) it was 25 mg/kg; in the series with Fasciola hepatica (sheep, read-out: minimum effective dose (MED)), 25 mg/kg; in the series with Ostertagia circumcincta, 25 mg/kg; in [3] it was 25 mg/kg; in the series on Moniezia benedeni, 25 mg/kg. For the same molecule, the “action against liver flukes in sheep” value in the series on Fasciola hepatica (sheep) is recorded as “excellent action against liver flukes in sheep”. The antischistosomal effects result in the series with Schistosoma japonicum and in the series on Schistosoma mansoni was “pronounced antischistosomal effects” throughout. The “potency against filariasis, micro- and macrofilariae” value with Brugia pahangi, in the series with Litomosoides carinii, with Brugia malayi and with Dipetalonea viteae was “pronounced potency” each time. The selectivity ratio in series [1] (liver flukes, read-out: therapeutic index (maximum tolerated dose/minimum effective dose)) is about 13. For the same molecule, in series [1], the MTD at 336 h was 320 mg/kg. The anthelmintic properties entry in series [2] (general) is listed as “generally good anthelmintic properties”. Further, the “activity against filariasis, schistosomiasis and gastro-intestinal helminths” value in [2] (various test models) was “excellent activity”. Moreover, the “anthelminthic activities against a broad variety of parasitic helminths” value in [2] (warm-blooded organisms, compound and non-toxic salts) is listed as “extremely potent anthelminthic activities”.
